Laboratory results: PubChem BioAssay (NCI)
“And” between values parts separate entries of the source, which are not always exact repeats. Identical values can stand only once.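 In this assay, cells in 96-well plates receive the compound at five concentrations for 48 hours. Endpoints are linearly interpolated between the surrounding concentrations. At the GI50, growth is halved. Definition used: TGI = concentration required for complete inhibition of growth.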

What was measured:
Test in all cases: inhibition of tumour cell growth, NCI panel, 48 h
UO-31 renal = system: UO-31 renal
786-0 renal = system: 786-0 renal
M14 melanoma = system: M14 melanoma
EKVX NSCLC = system: EKVX NSCLC
COLO 205 colon = system: COLO 205 colon
SF-295 CNS = system: SF-295 CNS
OVCAR-5 ovarian = system: OVCAR-5 ovarian
OVCAR-4 ovarian = system: OVCAR-4 ovarian
SK-MEL-2 melanoma = system: SK-MEL-2 melanoma
MALME-3M melanoma = system: MALME-3M melanoma
SF-539 CNS = system: SF-539 CNS
SK-MEL-5 melanoma = system: SK-MEL-5 melanoma
SK-MEL-28 melanoma = system: SK-MEL-28 melanoma
HL-60(TB) leukemia = system: HL-60(TB) leukemia
SK-OV-3 ovarian = system: SK-OV-3 ovarian
MDA-MB-435 = system: MDA-MB-435
NCI/ADR-RES ovarian = system: NCI/ADR-RES ovarian
HCC-2998 colon = system: HCC-2998 colon

| Compound | TGI (UO-31 renal) | TGI (786-0 renal) | TGI (M14 melanoma) | TGI (EKVX NSCLC) | TGI (COLO 205 colon) [µM] | TGI (SF-295 CNS) [µM] | TGI (OVCAR-5 ovarian) | TGI (OVCAR-4 ovarian) [µM] | TGI (SK-MEL-2 melanoma) | TGI (MALME-3M melanoma) | TGI (SF-539 CNS) | TGI (SK-MEL-5 melanoma) | TGI (SK-MEL-28 melanoma) | TGI (HL-60(TB) leukemia) | TGI (SK-OV-3 ovarian) | TGI (MDA-MB-435) [µM] | TGI (NCI/ADR-RES ovarian) [µM] | TGI (HCC-2998 colon) | GI50 (HCC-2998 colon) |
| --- | --- | --- | --- | --- | --- | --- | --- | --- | --- | --- | --- | --- | --- | --- | --- | --- | --- | --- | --- |
| C=CCN(N=O)C(=O)N(CCCC(NC(C)=O)C(=O)NCc1ccccc1)Cc1ccccc1 (stereo not drawn) | > 100 µM | > 100 µM | > 100 µM | > 100 µM | > 100 | > 100 | > 100 µM | > 100 | > 100 µM | > 100 µM | > 100 µM | 93.8 µM | > 100 µM | 52.9 µM | > 100 µM |  |  |  |  |
| CC(C)(C)[Si](C)(C)OCC1OC(n2ccc(=O)[nH]c2=O)C(O[Si](C)(C)C(C)(C)C)[C@@]12O[C@H]2C(N)=O (stereo partly drawn) | 19.6 µM | 29.9 µM | 42.9 µM | 34.4 µM | 24.8 | 17 | 40.6 µM | 89.5 | 34.6 µM |  | 13.4 µM | 16.5 µM | > 100 µM | > 100 µM | 36.6 µM | 23.1 | 38.5 | > 100 µM |  |
| COc1cc(C2c3cc4c(cc3[C@@H](NCCN3CCCCC3)C3COC(=O)[C@H]23)OCO4)cc(OC)c1O (stereo partly drawn) | 1.8 µM and 1.99 µM | 1.01 µM and 0.808 µM | 1.44 µM and 2 µM | 5.28 µM and 5.71 µM | > 100 | 0.881 | 5.06 µM and 5.73 µM | > 100 | 4.92 µM and 4.65 µM | 2.59 µM and 3.44 µM | 0.842 µM and 0.896 µM | 1.93 µM and 2.19 µM | 7.22 µM and 11.4 µM | 0.402 µM and 0.36 µM | 0.877 µM and 0.484 µM |  |  | 1.97 µM and 2.37 µM | 0.427 µM and 1.09 µM |
| C/C(=N\Nc1ccccc1Br)c1cccc(/C(C)=N/Nc2ccccc2Br)n1 | > 100 µM | > 100 µM | > 100 µM | > 100 µM | > 100 | > 100 | > 100 µM | > 100 | > 100 µM | > 100 µM | > 100 µM | > 100 µM | > 100 µM | > 100 µM |  | > 100 | > 100 | > 100 µM |  |
| COc1c(OC)c(N)c2cc(C)c(=O)c(C)cc2c1N | > 100 µM | > 100 µM | > 100 µM | > 100 µM | > 100 | > 100 | > 100 µM | > 100 | > 100 µM | > 100 µM | > 100 µM | > 100 µM |  | > 100 µM | > 100 µM |  |  | > 100 µM |  |
| CN1CCN(c2cc3c(cc2F)c(=O)c(C(=O)O)cn3C2CC2)CC1CC#N (stereo not drawn) | > 100 µM | > 100 µM |  | > 100 µM | > 100 | > 100 | > 100 µM | > 100 |  | > 100 µM | > 100 µM | > 100 µM | > 100 µM | > 100 µM | > 100 µM | > 100 | > 100 | > 100 µM |  |
| O=c1c2c(c1=O)C1(SCCCS1)c1cc(Cl)ccc1O2 | > 100 µM | > 100 µM | > 100 µM | > 100 µM | > 100 | > 100 | > 100 µM | > 100 | > 100 µM | > 100 µM | > 100 µM | > 100 µM | > 100 µM | > 100 µM | > 100 µM | > 100 | > 100 | > 100 µM |  |
| CCC(CC)n1cc(C(=O)NC(=O)NCCCCCOC(=O)CCCCCCCCCCC(=O)OCCCCCNC(=O)NC(=O)c2cn(C(CC)CC)c(=O)[nH]c2=O)c(=O)[nH]c1=O | > 100 µM | > 100 µM | > 100 µM | > 100 µM | > 100 | > 100 | > 100 µM | > 100 |  | > 100 µM | > 100 µM | > 100 µM | > 100 µM | > 100 µM | > 100 µM |  |  | > 100 µM |  |
| COc1cc(NCc2ccc3nc(-c4ccccc4)c(N)nc3c2)cc(OC)c1OC | > 100 µM | > 100 µM | 37.8 µM | > 100 µM | 38.6 | 92.7 | > 100 µM | > 100 | > 100 µM | 65.9 µM | 91.4 µM | 28.9 µM | 69 µM | 49.7 µM | > 100 µM | 50.7 | 57.8 | > 100 µM |  |
| O=C(c1ccco1)n1c2ccc(Br)cc2c2nc3ccccc3nc21 | > 100 µM | 51 µM | > 100 µM | > 100 µM | > 100 | > 100 | > 100 µM | > 100 | > 100 µM | > 100 µM | > 100 µM | > 100 µM | > 100 µM | > 100 µM |  | > 100 | > 100 | > 100 µM |  |
| N#CCC(=O)c1cc(OCc2cc(OCc3ccc(Br)cc3)cc(OCc3ccc(Br)cc3)c2)cc(OCc2cc(OCc3ccc(Br)cc3)cc(OCc3ccc(Br)cc3)c2)c1 | > 100 µM | > 100 µM | > 100 µM | > 100 µM | > 100 | > 100 | > 100 µM | > 100 | > 100 µM | > 100 µM |  | > 100 µM | > 100 µM |  | > 100 µM | > 100 | > 100 | > 100 µM |  |
| CN(C(=O)c1ccc(Cl)cc1)C(=S)N1CCN(c2ccccn2)CC1 | > 100 µM | > 100 µM | > 100 µM |  | > 100 | > 100 | > 100 µM | > 100 | > 100 µM | > 100 µM | > 100 µM | > 100 µM | > 100 µM | > 100 µM | > 100 µM |  |  |  |  |
| O=C(Cc1ccccc1)NN1C(=O)C(Cl)C1c1ccc([N+](=O)[O-])cc1 (stereo not drawn) | > 100 µM | > 100 µM | > 100 µM | > 100 µM | > 100 | > 100 | > 100 µM | > 100 | > 100 µM | > 100 µM |  | > 100 µM | > 100 µM | > 100 µM | > 100 µM |  |  | > 100 µM |  |
| CCN(CCCN(CC)C(=O)Nc1ccccc1)C(=O)Nc1ccccc1 | > 100 µM | > 100 µM | > 100 µM | > 100 µM | > 100 | > 100 | > 100 µM | > 100 | > 100 µM | > 100 µM | > 100 µM | > 100 µM | > 100 µM | > 100 µM | > 100 µM | > 100 | > 100 | > 100 µM |  |
